Laboratory results reported in US8445680B2, “Tetrahydrothieno pyridines” (Merck Sharp & Dohme Corp., priority 2008, dated 2013).
Counter-ions that a name gives are not always drawn.

target: T1, FLAG-tagged full length PHD2 (Homo sapiens, UniProt Q9GZT9); assay: PHD2 inhibition assay (time resolved fluorescence, HIF-1α peptide hydroxylation, VHL detection); assay type: biochemical; settings: 0.2 μM 2-oxoglutarate, 0.5 μM HIF-1α peptide, 2 hr at room temperature; read-out: PHD2 Activity (PHD2 binding activity expressed as IC50)
T1 construct: FLAG-tagged full length PHD2; FLAG; made in house; host or cells: baculovirus-infected Sf9 cells
T1 sequence (Q9GZT9 whole entry): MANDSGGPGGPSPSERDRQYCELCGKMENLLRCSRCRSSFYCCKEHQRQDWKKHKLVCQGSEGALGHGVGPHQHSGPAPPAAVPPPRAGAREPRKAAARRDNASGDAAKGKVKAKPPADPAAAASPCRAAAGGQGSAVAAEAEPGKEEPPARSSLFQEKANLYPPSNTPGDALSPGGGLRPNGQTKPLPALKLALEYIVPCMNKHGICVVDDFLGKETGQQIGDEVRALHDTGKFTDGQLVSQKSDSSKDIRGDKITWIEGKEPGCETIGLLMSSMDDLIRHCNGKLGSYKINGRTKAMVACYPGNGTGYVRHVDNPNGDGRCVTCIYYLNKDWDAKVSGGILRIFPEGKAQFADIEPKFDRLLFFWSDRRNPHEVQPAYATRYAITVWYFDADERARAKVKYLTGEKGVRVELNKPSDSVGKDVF
Protocol: To each well of a 96-well plate was added 1 μL of test compound in DMSO and 20 μl of assay buffer (50 mM Tris pH 7.4/0.01% Tween-20/0.1 mg/ml bovine serum albumin/10 μM ferrous sulfate/1 mM sodium ascorbate/20 μg/ml catalase) containing 0.15 μg/ml FLAG-tagged full length PHD2 expressed in and purified from baculovirus-infected Sf9 cells. After a 30 min preincubation at room temperature, the enzymatic reactions were initiated by the addition of 4 μL of substrates (final concentrations of 0.2 μM 2-oxoglutarate and 0.5 μM HIF-1α peptide biotinyl-[…]).

Row | SMILES | IC50
1 | Cc1n[nH]c(C)c1-c1ccc(Cn2c3c(c(O)c(C(=O)NCC(=O)O)c2=O)CSC3)cc1 [Example 31, N-({1-[4-(3,5-dimethyl-1H-pyrazol-4-yl)benzyl]-4-hydroxy-2-oxo-1,2,5,7-tetrahydrothieno[3,4-b]pyridin-3-yl}carbonyl)glycine] | ≤ 10 nM
2 | O=C(O)CNC(=O)c1c(O)c2c(n(Cc3ccc(Cl)cc3)c1=O)CS(=O)(=O)C2 [Example 60, N-{[1-(4-chlorobenzyl)-4-hydroxy-6,6-dioxido-2-oxo-1,2,5,7-tetrahydrothieno[3,4-b]pyridin-3-yl]carbonyl}glycine] | ≤ 10 nM
3 | O=C(O)CNC(=O)c1c(O)c2c(n(Cc3cnc(-c4ccccc4F)cn3)c1=O)CSC2 [Example 26, N-[(1-{[5-(2-fluorophenyl)pyrazin-2-yl]methyl}-4-hydroxy-2-oxo-1,2,5,7-tetrahydrothieno[3,4-b]pyridin-3-yl)carbonyl]glycine] | ≤ 10 nM
4 | O=C(O)CNC(=O)c1c(O)c2c(n(Cc3cccc(Cl)c3)c1=O)CSC2 [Example 14, N-{[1-(3-chlorobenzyl)-4-hydroxy-2-oxo-1,2,5,7-tetrahydrothieno[3,4-b]pyridin-3-yl]carbonyl}glycine] | ≤ 10 nM
5 | O=C(O)CNC(=O)c1c(O)c2c(n(Cc3ccc(OC(F)(F)F)cc3)c1=O)CSC2 [Example 20, N-({4-hydroxy-2-oxo-1-[4-(trifluoromethoxy)benzyl]-1,2,5,7-tetrahydrothieno[3,4-b]pyridin-3-yl}carbonyl)glycine] | ≤ 10 nM
6 | O=C(O)CNC(=O)c1c(O)c2c(n(-c3ccc(Br)cc3)c1=O)CSC2 [Example 12, N-{[1-(4-bromophenyl)-4-hydroxy-2-oxo-1,2,5,7-tetrahydrothieno[3,4-b]pyridin-3-yl]carbonyl]glycine] | ≤ 10 nM
7 | Cc1cc(Cl)ccc1Cn1c2c(c(O)c(C(=O)NCC(=O)O)c1=O)CSC2 [Example 15, N-{[1-(4-chloro-2-methylbenzyl)-4-hydroxy-2-oxo-1,2,5,7-tetrahydrothieno[3,4-b]pyridin-3-yl]carbonyl}glycine] | ≤ 10 nM
8 | O=C(O)CNC(=O)c1c(O)c2c(n(Cc3ccc(Cl)nc3)c1=O)CSC2 [Example 1, N-({1-[(6-chloropyridin-3-yl)methyl]-4-hydroxy-2-oxo-1,2,5,7-tetrahydrothieno[3,4-b]pyridin-3-yl}carbonyl)glycine] | ≤ 10 nM
9 | O=C(O)CNC(=O)c1c(O)c2c(n(-c3ccc(-c4ccc(OC(F)(F)F)cc4)cc3)c1=O)CSC2 [Example 38, N-({4-hydroxy-2-oxo-1-[4′-(trifluoromethoxy)biphenyl-4-yl]-1,2,5,7-tetrahydrothieno[3,4-b]pyridin-3-yl}carbonyl)glycine] | 10 to 100 nM
10 | O=C(O)CNC(=O)c1c(O)c2c(n(Cc3ccc(Oc4ccc(F)cc4)cc3)c1=O)CSC2 [Example 32, N-({l-[4-(4-fluorophenoxy)benzyl]-4-hydroxy-2-oxo-1,2,5,7-tetrahydrothieno[3,4-b]pyridin-3-yl}carbonyl)glycine] | ≤ 10 nM
11 | Cc1ccc(-c2ccc(Cn3c4c(c(O)c(C(=O)NCC(=O)O)c3=O)CSC4)cc2)cc1 [Example 25, N-({4-hydroxy-1-[(4′-methylbiphenyl-4-yl)methyl]-2-oxo-1,2,5,7-tetrahydrothieno[3,4-b]pyridin-3-yl}carbonyl)glycine] | ≤ 10 nM
12 | O=C(O)CNC(=O)c1c(O)c2c(n(Cc3ccc(-c4cc(F)ccc4F)nc3)c1=O)CSC2 [Example 51, N-[(l-{[6-(2,5-difluorophenyl)pyridinium-3-yl]methyl}-4-hydroxy-2-oxo-1,2,5,7-tetrahydrothieno[3,4-6]pyridin-3-yl)carbonyl]glycine trifluoroacetate] | ≤ 10 nM
13 | O=C(O)CNC(=O)c1c(O)c2c(n(Cc3nc(-c4ccccc4)cs3)c1=O)CS(=O)(=O)C2 [Example 62, N-({4-hydroxy-6,6-dioxido-2-oxo-1-[(4-phenyl-1,3-thiazol-2-yl)methyl]-1,2,5,7-tetrahydrothieno[3,4-b]pyridin-3-yl}carbonyl)glycine] | 10 to 100 nM
14 | O=C(O)CNC(=O)c1c(O)c2c(n(Cc3ccc(-c4ccn[nH]4)cc3)c1=O)CSC2 [Example 27, N-({4-hydroxy-2-oxo-1-[4-(1H-pyrazol-5-yl)benzyl]-1,2,5,7-tetrahydrothieno[3,4-b]pyridin-3-yl}carbonyl)glycine] | ≤ 10 nM
15 | O=C(O)CNC(=O)c1c(O)c2c(n(Cc3ccc(C(F)(F)F)cc3)c1=O)CSC2 [Example 4, N-({4-hydroxy-2-oxo-1-[4-(trifluoromethyl)benzyl]-1,2,5,7-tetrahydrothieno[3,4-b]pyridin-3-yl]carbonyl)glycine] | ≤ 10 nM
16 | CCc1ccc(Cn2c3c(c(O)c(C(=O)NCC(=O)O)c2=O)CS(=O)(=O)C3)cc1 [Example 66, N-{[1-(4-ethylbenzyl)-4-hydroxy-6,6-dioxido-2-oxo-1,2,5,7-tetrahydrothieno[3,4-b]pyridin-3-yl]carbonyl}glycine] | ≤ 10 nM
17 | O=C(O)CNC(=O)c1c(O)c2c(n(Cc3ccc(-c4ccccc4Cl)nc3)c1=O)CSC2 [Example 41, N-[(l-{[6-(2-chlorophenyl)pyridinium-3-yl]methyl}-4-hydroxy-2-oxo-1,2,5,7-tetrahydrothieno[3,4-b]pyridin-3-yl)carbonyl]glycine trifluoroacetate] | ≤ 10 nM
18 | N#Cc1ccc(Cn2c3c(c(O)c(C(=O)NCC(=O)O)c2=O)CSC3)cc1 [Example 3, N-{[1-(4-cyanobenzyl)-4-hydroxy-2-oxo-1,2,5,7-tetrahydrothieno[3,4-b]pyridin-3-yl]carbonyl}glycine] | ≤ 10 nM
19 | CC(=O)c1ccc(-c2ccc(Cn3c4c(c(O)c(C(=O)NCC(=O)O)c3=O)CSC4)cc2)cc1 [Example 28, N-({1-[(4′-acetylbiphenyl-4-yl)methyl]-4-hydroxy-2-oxo-1,2,5,7-tetrahydrothieno[3,4-b]pyridin-3-yl}carbonyl)glycine] | ≤ 10 nM
20 | CSc1ccccc1-c1ccc(Cn2c3c(c(O)c(C(=O)NCC(=O)O)c2=O)CSC3)cn1 [Example 47, N-{[4-hydroxy-1-({6-[2-(methylthio)phenyl]pyridinium-3-yl}methyl)-2-oxo-1,2,5,7-tetrahydrothieno[3,4-b]pyridin-3-yl]carbonyl}glycine trifluoroacetate] | ≤ 10 nM
21 | CC(C)c1ccc(Cn2c3c(c(O)c(C(=O)NCC(=O)O)c2=O)CSC3)cc1 [Example 8, N-{[4-hydroxy-1-(4-isopropylbenzyl)-2-oxo-1,2,5,7-tetrahydrothieno[3,4-b]pyridin-3-yl]carbonyl]glycine] | ≤ 10 nM

More lines, now with the values ahead:

Row | IC50 | SMILES
22 | ≤ 10 nM | CCN(CC)C(=O)c1ccccc1-c1ccc(Cn2c3c(c(O)c(C(=O)NCC(=O)O)c2=O)CSC3)cc1 [Example 37, N-{[1-({2′-[(diethylamino)carbonyl]biphenyl-4-yl}methyl)-4-hydroxy-2-oxo-1,2,5,7-tetrahydrothieno[3,4-b]pyridin-3-yl]carbonyl}glycine]
23 | ≤ 10 nM | O=C(O)CNC(=O)c1c(O)c2c(n(Cc3ccc(-c4cccc(OC(F)(F)F)c4)nc3)c1=O)CSC2 [Example 49, N-{[4-hydroxy-2-oxo-1-({6-[3-(trifluoromethoxy)phenyl]pyridinium-3-yl}methyl)-1,2,5,7-tetrahydrothieno[3,4-b]pyridin-3-yl]carbonyl}glycine trifluoroacetate]
24 | ≤ 10 nM | O=C(O)CNC(=O)c1c(O)c2c(n(Cc3ccc(Oc4ccc(Cl)cc4)cc3)c1=O)CSC2 [Example 33, N-({1-[4-(4-chlorophenoxy)benzyl]-4-hydroxy-2-oxo-1,2,5,7-tetrahydrothieno[3,4-b]pyridin-3-yl}carbonyl)glycine]
25 | ≤ 10 nM | O=C(O)CNC(=O)c1c(O)c2c(n(Cc3cc4ccccc4s3)c1=O)CSC2 [Example 22, N-{[1-(1-benzothien-2-ylmethyl)-4-hydroxy-2-oxo-1,2,5,7-tetrahydrothieno[3,4-b]pyridin-3-yl]carbonyl}glycine]
26 | ≤ 10 nM | O=C(O)CNC(=O)c1c(O)c2c(n(Cc3ccc(-c4ccc(C(F)(F)F)cc4)nc3)c1=O)CSC2 [Example 44, N-{[4-hydroxy-2-oxo-1-({6-[4-(trifluoromethyl)phenyl]pyridinium-3-yl}methyl)-1,2,5,7-tetrahydrothieno[3,4-b]pyridin-3-yl]caxbonyl}glycine trifluoroacetate]
27 | ≤ 10 nM | CC(C)(C)c1ccc(Cn2c3c(c(O)c(C(=O)NCC(=O)O)c2=O)CSC3)cc1 [Example 9, N-{[1-(4-tert-butylbenzyl)-4-hydroxy-2-oxo-1,2,5,7-tetrahydrothieno[3,4-b]pyridin-3-yl]caxbonyl]glycine]
28 | ≤ 10 nM | Cc1ccccc1-c1ccc(Cn2c3c(c(O)c(C(=O)NCC(=O)O)c2=O)CSC3)cn1 [Example 48, N-[(4-hydroxy-1-{[6-(2-methylphenyl)pyridinium-3-yl-methyl}-2-oxo-1,2,5,7-tetrahydrothieno[3,4-b]pyridin-3-yl)carbonyl]glycine trifluoroacetate]
29 | ≤ 10 nM | O=C(O)CNC(=O)c1c(O)c2c(n(Cc3ccc(-c4ccccc4)cc3)c1=O)CSC2 [Example 29, N-{[1-(biphenyl-4-ylmethyl)-4-hydroxy-2-oxo-1,2,5,7-tetrahydrothieno[3,4-b]pyridin-3-yl]carbonyl}glycine]
30 | ≤ 10 nM | O=C(O)CNC(=O)c1c(O)c2c(n(Cc3ccc(-c4cccc(Cl)c4)nc3)c1=O)CSC2 [Example 39, N-[(l-{[6-(3-chlorophenyl)pyridinium-3-yl]methyl}-4-hydroxy-2-oxo-1,2,5,7-tetrahydrothieno[3,4-b]pyridin-3-yl)carbonyl]glycine trifluoroacetate]
31 | ≤ 10 nM | O=C(O)CNC(=O)c1c(O)c2c(n(Cc3ccc(-c4cccc5ncccc45)cc3)c1=O)CSC2 [Example 52, N-{[4-hydroxy-2-oxo-1-(4-quinolinium-5-ylbenzyl)-1,2,5,7-tetrahydrothieno[3,4-b]pyridin-3-yl]carbonyl}glycine chloride]
